Read-outs that look alike come from different tables or passages of the source.
How the values were obtained:
[1] = system: Daudi (ATCC CCL-213, B Lymphoblast) cells; assay: In-vitro cytotoxicity assay using Daudi cells (alamar blue); format: cell-based
Description: Daudi (ATCC CCL-213, B Lymphoblast) cells were seeded on a 96 well black clear bottom plate (Costar 3603). The cell line was chosen as it is known to express the CD38 receptor. The cells were treated with different concentrations of daratumumab-MMAE conjugation and Darzalex, incubated in CO2 incubator for 2 hours. After incubation the excess or unbound Daratumumab-MMAE was removed, fresh media was added and incubated for 4 days in 5% CO2 at 37° C. At the end of incubation, alamar blue dye (invitrogen, DAL-1100) was added to the cells and incubated for 5 hours in CO2 incubator.

[2] = system: Daudi Burkitt lymphoma xenograft; assay: Efficacy in Burkitt lymphoma xenograft disease model in SCID mice; format: in vivo; details: 5 mg/kg, I.V. route, single administration; dosed at mean tumor volume approximately 20-25 mm3; FIG. 4
Description: In present study, the therapeutic potential of novel Daratumumab-ADC has been evaluated in comparison to Daratumumab antibody only. Specifically to induce Burkitt lymphoma xenograft, Immunodeficient SCID mice were injected with Daudi cells (1 million cells/animal/200 μL volume, In 1:1 ratio of cell suspension & matrigel) in right flank region of animals. […] Here, in this study, Daratumumab-ADC & Daratumumab were compared head to head at a dose level of 5 mg/kg (I.V. route, Single administration).

Substance	in vitro activity (cytotoxicity, viable cells by alamar blue fluorescence) [1]	effect on tumor progression / tumor burden [2]	in vitro activity (cytotoxicity, viable cells by alamar blue fluorescence) ([1]; Daudi cells expressing CD38, 2 hours treatment, unbound removed, 4 days incubation, no effector cells)	relative in vitro activity compared with Darzalex ([1]; Daudi cells, FIG. 3)
Daratumumab: immunoglobulin G1 kappa (IgG1κ) human monoclonal antibody against CD38 antigen [reference compound]	does not show activity without effector functions	able to delay the tumor progression in comparison to placebo control group but not able to regress the tumor burden	–	–
daratumumab-MMAE conjugate: daratumumab as an antibody, mc-vc-PABC as a linker and MMAE as a toxin or drug or payload; average DAR about 4	–	able to regress the tumor burden	shows good in vitro activity without the requirement of effector cell mediated killing	better than Darzalex

Reference: patent publication US20260263617A1, “DARATUMUMAB DRUG CONJUGATES AND PREPARATION THEREOF” (ZYDUS LIFESCIENCES LIMITED, priority 2023, published 2026)
